Data from PMC9697831 (Journal of Fungi, 2022).
pKd: −log10 of the molar value. Positions of bridges follow the written chain, without caps; N, C: chain ends. No end group written: not given here.

What was measured:
hKv1.3 [1] = molecular target: T1, hKv1.3 (Homo sapiens, UniProt P22001); test: Whole-cell patch clamp of hKv1.3 currents in activated human T lymphocytes; type: cell-based; settings: for time needed to reach equilibrium (steady-state) block of hKv1.3: 1 nM; for Hill coefficient (H): Hill equation fit of concentration-response on hKv1.3, n = 3-5; for Activity on hKv1.3: RP-HPLC fraction of His-tagged recombinant peptide, patch clamp; for recovery from block on perfusion with toxin-free solution: washout
T1 construct: endogenous in cells
Description: Human venous blood from anonymized healthy donors was obtained from a blood bank. Peripheral blood mononuclear cells (PBMCs) were isolated by density gradient centrifugation using Histopaque1077 (Cat. No 10771). The obtained cells were resuspended in RPMI 1640 medium containing 10% fetal calf serum, 100 μg/mL penicillin, 100 μg/mL streptomycin, and […], seeded at a density of 5 × 10^5 cells per ml in a 24-well culture plate and grown in a 5% CO2 incubator at 37 °C for 2–5 days. Phytohemagglutinin A (Cat. No. L1668) was added to the medium at concentrations of 5, 7, and 10 μg/mL to increase the voltage-gated potassium ion channel expression.
Electrophysiological measurements were performed by using the patch clamp technique in a whole-cell configuration on voltage-clamped cells using the Axon Multiclamp 700B amplifier and the Axon Digidata1440 digitizer; the Clampex 10.7 software was used for data acquisition (all from Molecular Devices, Sunnyvale, CA, USA). Micropipettes were pulled from GC150F-15 borosilicate capillaries (Harvard Apparatus Kent, Edenbridge, UK), resulting in 3–4 MΩ resistance in the bath solution. The extracellular solution (bath solution) contained 145 mM NaCl, 5 mM KCl, 1 mM MgCl2, 2.5 mM CaCl2, 5.5 mM glucose, and 10 mM HEPES, with a pH of 7.35 and an osmolarity between 302 and 308 mOsM/L. The pipette filling solution (intracellular) consisted of 140 mM KF, 2 mM MgCl2, 1 mM CaCl2, 10 mM HEPES, and 11 mM EGTA, with a pH of 7.22 and an osmolarity of 295 mOsM/L. When the toxins were dissolved in bath solution at different molar concentrations, they were supplemented with 0.1 mg/mL bovine serum albumin (BSA). To record hKv1.3 in activated human T lymphocytes (Kv1.3 overexpression), 15 ms-long depolarizing pulses were applied at +50 mV from a holding potential of −120 mV every 15 s. Current traces were low-pass filtered by the analog four-pole Bessel filters of the amplifiers, and the sampling frequency was set at 20 kHz, which was at least twice that of the filter cutoff frequency. The control and test solutions were perfused into the cell through a gravity flow perfusion system. The excess bath solution was constantly removed with vacuum suction.
The effect of the toxin at a given molar concentration was calculated as the remaining current fraction (RCF = I/I0, where I0 is the peak current in the absence of the toxin and I is the peak current at the equilibrium block at a given toxin concentration). The data points on the dose-response curves represent the mean of 3–5 individual measurements. The data points were fitted with the Hill equation, RCF=KdH/KdH+toxin^H where [toxin] is the concentration of the toxin and H is the Hill coefficient. The best fit curve gave the Kd value of a given toxin.

rat Kv1.3 (rKv1.3) = settings: rKv1.3 expressed in oocytes; cited from earlier work
Source text: Anuroctoxin (AnTx, α-KTx 6.12) is a small peptide consisting of 35 amino acids (4109 Da). […] Ts6 (α-KTx 12.1) consists of 40 amino acids with a molecular mass of 4506 Da. Ts6 was isolated from the venom of the scorpion Tytyus serrulatus and inhibits hKv1. ... || In the preliminary experiments to evaluate the biological activity of the recombinant toxins, peptide concentrations slightly higher than the reported Kd values for the native toxins were used.

hKv1.3 [2] = molecular target: T1, hKv1.3; settings: 100 nM, hKv1.3 expressed in CHO cells; cited from earlier work
Description: As mentioned earlier, the Kd values of Tag-Vm24 and Untag-AnTx were very similar to those reported for the native toxins. […] The Kd value of the native Ts6 was determined using Xenopus oocytes expressing rat Kv1.3 (rKv1.3). […] Differences in the type of cell expression system as well as the use of a channel from di ...

Kv1.3 channel = settings: ref 11 (charybdotoxin), 12 (noxiustoxin), 13 (Vm24), 14 (ShK), 15 (margatoxin), 16 (HsTx1); cited from earlier work
Source text: Voltage-gated potassium (Kv) channels regulate the selective efflux of K^+ through the plasma membrane, thereby shaping the action potentials in excitable cells and regulating many other cellular functions in non-excitable cells. The Kv channel family includes 12 subfamilies (Kv1-Kv12). The Kv1 (Shaker) subfamily consists of eight voltage-gated potassium channels belonging to the delayed rectifier class (Kv1.1–Kv1.8). Of this Kv subfamily, the Kv1.3 channel is mainly expressed in neurons and immune cells, and therefore, channel inhibition in these cells may be useful in the t ...

T1 sequence (P22001 whole entry, the tested form may be a part): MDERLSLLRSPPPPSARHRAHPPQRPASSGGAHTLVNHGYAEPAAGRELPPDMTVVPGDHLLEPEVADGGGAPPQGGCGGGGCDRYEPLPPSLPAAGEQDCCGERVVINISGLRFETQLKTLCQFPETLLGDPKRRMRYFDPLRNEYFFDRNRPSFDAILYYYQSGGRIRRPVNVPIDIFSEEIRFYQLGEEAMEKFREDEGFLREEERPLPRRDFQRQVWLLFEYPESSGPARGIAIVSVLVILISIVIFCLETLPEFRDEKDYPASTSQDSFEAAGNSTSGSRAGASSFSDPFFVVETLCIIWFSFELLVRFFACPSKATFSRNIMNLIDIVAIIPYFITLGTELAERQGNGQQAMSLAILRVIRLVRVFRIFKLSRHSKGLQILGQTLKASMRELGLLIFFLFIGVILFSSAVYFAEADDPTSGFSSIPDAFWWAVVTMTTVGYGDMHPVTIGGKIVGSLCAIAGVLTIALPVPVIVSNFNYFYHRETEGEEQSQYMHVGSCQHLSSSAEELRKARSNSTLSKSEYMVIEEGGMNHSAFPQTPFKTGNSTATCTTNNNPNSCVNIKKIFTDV

Compound | Hill coefficient (H) (hKv1.3 [1]) | Activity on hKv1.3 (hKv1.3 [1]) | recovery from block on perfusion with toxin-free solution (hKv1.3 [1]) | concentration range in which the toxin blocks the Kv1.3 channel (Kv1.3 channel) | further results
CSCC[C@@H]1NC(=O)[C@@H]2CSSC[C@H](NC(=O)[C@H](CCC(=O)O)NC(=O)[C@H](CCCCN)NC(=O)[C@H](CCC(N)=O)NC(=O)[C@H](CCCCN)NC(=O)[C@H](CC(=O)O)NC(=O)[C@H](CC(=O)O)NC(=O)[C@H](CC(=O)O)NC(=O)[C@H](CC(=O)O)NC(=O)[C@H](Cc3c[nH]cn3)NC(=O)[C@H](Cc3c[nH]cn3)NC(=O)[C@H](Cc3c[nH]cn3)NC(=O)[C@H](Cc3c[nH]cn3)NC(=O)[C@H](Cc3c[nH]cn3)NC(=O)[C@H](Cc3c[nH]cn3)NC(=O)[C@H](CCC(N)=O)NC(=O)[C@H](CC(C)C)NC(=O)[C@H](Cc3ccccc3)NC(=O)[C@@H](N)CCC(=O)O)C(=O)N[C@@H]([C@@H](C)O)C(=O)NCC(=O)N3CCC[C@H]3C(=O)N[C@@H](CCC(N)=O)C(=O)N[C@@H](Cc3c[nH]cn3)C(=O)N[C@H]3CSSC[C@H](NC(=O)[C@H](CCCCN)NC(=O)[C@H](CCCNC(=N)N)NC(=O)[C@H](CC(N)=O)NC1=O)C(=O)N[C@@H](CCCCN)C(=O)N[C@H]1CSSC[C@H](NC(=O)[C@H](Cc4ccccc4)NC(=O)[C@H](CC(N)=O)NC(=O)[C@H]([C@@H](C)O)NC3=O)C(=O)N[C@@H](CCCNC(=N)N)C(=O)N[C@@H](CCCCN)C(=O)N[C@@H](CC(N)=O)C(=O)N[C@@H](CCCCN)C(=O)N[C@@H](CSSC[C@@H](C(=O)N[C@@H](CCCCN)C(=O)O)NC(=O)[C@H](CC(N)=O)NC(=O)[C@H](Cc3ccccc3)NC1=O)C(=O)N[C@@H]([C@@H](C)O)C(=O)N[C@@H](Cc1c[nH]cn1)C(=O)NCC(=O)N[C@@H](CCCCN)C(=O)N2 [Tag-AnTx] | 0.91 | Positive | full recovery |  | time needed to reach equilibrium (steady-state) block of hKv1.3 (hKv1.3 [1]): ~ 2.5 min
EFLQHHHHHHIEGRAAAISCVGSPECPPKCRAQGCKNGKCMNRKCKCYYC (disulfide 20-40, 26-45, 30-47, 35-50) [Tag-Vm24] | 0.92 | Positive | not reversible |  | time needed to achieve equilibrium block of hKv1.3 (hKv1.3 [1]; 10 pM): ~ 25 min; time needed to reach equilibrium (steady-state) block of hKv1.3 (hKv1.3 [1]): ~ 5 min
maurotoxin (VSCTGSKDCYAPCRKQTGCPNAKCINKSCKCYGC; UniProt P80719 1-34, looked up) |  |  |  |  | pKd (rat Kv1.3 (rKv1.3)): 6.74; sensitivity of hKv1.3 to the toxin (hKv1.3 [2]): almost insensitive
CSCC[C@@H]1NC(=O)[C@@H]2CSSC[C@H](NC(=O)[C@H](CCC(=O)O)NC(=O)[C@H](CCCCN)NC(=O)[C@@H](N)CCC(N)=O)C(=O)N[C@@H]([C@@H](C)O)C(=O)NCC(=O)N3CCC[C@H]3C(=O)N[C@@H](CCC(N)=O)C(=O)N[C@@H](Cc3c[nH]cn3)C(=O)N[C@H]3CSSC[C@H](NC(=O)[C@H](CCCCN)NC(=O)[C@H](CCCNC(=N)N)NC(=O)[C@H](CC(N)=O)NC1=O)C(=O)N[C@@H](CCCCN)C(=O)N[C@H]1CSSC[C@H](NC(=O)[C@H](Cc4ccccc4)NC(=O)[C@H](CC(N)=O)NC(=O)[C@H]([C@@H](C)O)NC3=O)C(=O)N[C@@H](CCCNC(=N)N)C(=O)N[C@@H](CCCCN)C(=O)N[C@@H](CC(N)=O)C(=O)N[C@@H](CCCCN)C(=O)N[C@@H](CSSC[C@@H](C(=O)N[C@@H](CCCCN)C(=O)O)NC(=O)[C@H](CC(N)=O)NC(=O)[C@H](Cc3ccccc3)NC1=O)C(=O)N[C@@H]([C@@H](C)O)C(=O)N[C@@H](Cc1c[nH]cn1)C(=O)NCC(=O)N[C@@H](CCCCN)C(=O)N2 [Untag-AnTx] |  |  |  |  | pKd (hKv1.3 [1]; whole-cell patch clamp, activated human peripheral T lymphocytes, 15 ms pulses to +50 mV from -120 mV every 15 s, Hill equation fitted to remaining current fraction, mean ± SEM, n = 3-5, read-out: Kd for block of hKv1.3): 9.14
noxiustoxin: toxin that blocks the Kv1.3 channel (TIINVKCTSPKQCSKPCKELYGSSAGAKCMNGKCKCYNN; UniProt P08815 1-39, looked up) |  |  |  | nanomolar range | 
EFHHHHHHDDDDKWCSTCLDLACGASRECYDPCFKAFGRAHGKCMNNKCRCYT (disulfide 15-18, 23-44, 29-49, 33-51) [Tag-Ts6] | 1.06 | Positive | complete recovery |  | block of more than 50% of the Kv1.3 current (hKv1.3 [1]; 100 nM, 6x-His-tagged peptide): could not be replicated; time of onset of equilibrium block and complete recovery of peak current (hKv1.3 [1]; progressively increasing concentrations): a few seconds
charybdotoxin |  |  |  | nanomolar range | 
margatoxin (TIINVKCTSPKQCLPPCKAQFGQSAGAKCMNGKCKCYPH; UniProt P40755 1-39, looked up) |  |  |  | picomolar range | 
